# Results taken from the supplement of paper PMC10307832.
# Key:
# Assay in all cases: relative viability (nuclei count vs DMSO), 5 days (fraction); higher = more cells survive
# A-427 = system: A-427
# Procedure, shortened: (§1)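 The day after seeding in 1536-well plates, lung cancer cell lines were treated by pin tool with a single drug, or with a fixed anchor-drug dose together with five library-drug doses (not always all listed) in √10 steps. After 5 days, a combined fix-and-stain solution (final 0.05% Triton X-100, 1% formaldehyde, 1 ug/ml Hoechst) was added. Nuclei counted on 4× images gave relative viability as treated counts over vehicle counts, reported as the median of duplicate plates.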
# ABC-1 = system: ABC-1
# Procedure, shortened: as §1
# COR-L23 = system: COR-L23
# Procedure, shortened: as §1
# ChaGo-K-1 = system: ChaGo-K-1
# Procedure, shortened: as §1
# HARA = system: HARA
# Procedure, shortened: as §1
# LCLC-97TM1 = system: LCLC-97TM1
# Procedure, shortened: as §1
# LK-2 = system: LK-2
# Procedure, shortened: as §1
# LOU-NH91 = system: LOU-NH91
# Procedure, shortened: as §1
# LU99A = system: LU99A
# Procedure, shortened: as §1
# NCI-H1395 = system: NCI-H1395
# Procedure, shortened: as §1
# NCI-H1651 = system: NCI-H1651
# Procedure, shortened: as §1
# NCI-H1734 = system: NCI-H1734
# Procedure, shortened: as §1
# NCI-H1792 = system: NCI-H1792
# Procedure, shortened: as §1
# NCI-H1975 = system: NCI-H1975
# Procedure, shortened: as §1
# NCI-H2023 = system: NCI-H2023
# Procedure, shortened: as §1
# NCI-H2126 = system: NCI-H2126
# Procedure, shortened: as §1
# NCI-H2342 = system: NCI-H2342
# Procedure, shortened: as §1
# NCI-H23 = system: NCI-H23
# Procedure, shortened: as §1
# NCI-H2405 = system: NCI-H2405
# Procedure, shortened: as §1
# NCI-H3122 = system: NCI-H3122
# Procedure, shortened: as §1
# NCI-H460 = system: NCI-H460
# Procedure, shortened: as §1
# NCI-H661 = system: NCI-H661
# Procedure, shortened: as §1
# NCI-H838 = system: NCI-H838
# Procedure, shortened: as §1
# SK-MES-1 = system: SK-MES-1
# Procedure, shortened: as §1
# SW 1573 = system: SW 1573
# Procedure, shortened: as §1
smiles,measurement,setting,value
Nc1cccc2c1CN(C1CCC(=O)NC1=O)C2=O (stereo not drawn) [Lenalidomide] + N=C(N)NC(=N)NCCc1ccccc1 [Phenformin] (partner 250 µM),relative viability,A-427; first compound 0.253 µM,0.317
same,relative viability,A-427; first compound 0.8 µM,0.324
same,relative viability,A-427; first compound 2.53 µM,0.421
same,relative viability,A-427; first compound 8 µM,0.311
same,relative viability,ABC-1; first compound 0.253 µM,0.209
same,relative viability,ABC-1; first compound 0.8 µM,0.216
same,relative viability,ABC-1; first compound 2.53 µM,0.27
same,relative viability,ABC-1; first compound 8 µM,0.258
same,relative viability,COR-L23; first compound 0.253 µM,0.412
same,relative viability,COR-L23; first compound 0.8 µM,0.412
same,relative viability,COR-L23; first compound 2.53 µM,0.508
same,relative viability,COR-L23; first compound 8 µM,0.45
same,relative viability,ChaGo-K-1; first compound 0.253 µM,0.497
same,relative viability,ChaGo-K-1; first compound 0.8 µM,0.459
same,relative viability,ChaGo-K-1; first compound 2.53 µM,0.636
same,relative viability,ChaGo-K-1; first compound 8 µM,0.478
same,relative viability,HARA; first compound 0.253 µM,0.414
same,relative viability,HARA; first compound 2.53 µM,0.595
same,relative viability,HARA; first compound 8 µM,0.417
same,relative viability,LCLC-97TM1; first compound 0.253 µM,0.378
same,relative viability,LCLC-97TM1; first compound 0.8 µM,0.409
same,relative viability,LCLC-97TM1; first compound 2.53 µM,0.485
same,relative viability,LCLC-97TM1; first compound 8 µM,0.365
same,relative viability,LK-2; first compound 0.253 µM,0.575
same,relative viability,LK-2; first compound 0.8 µM,0.262
same,relative viability,LK-2; first compound 2.53 µM,0.656
same,relative viability,LK-2; first compound 8 µM,0.229
same,relative viability,LOU-NH91; first compound 0.253 µM,0.681
same,relative viability,LOU-NH91; first compound 0.8 µM,0.584
same,relative viability,LOU-NH91; first compound 2.53 µM,0.75
same,relative viability,LOU-NH91; first compound 8 µM,0.491
same,relative viability,LU99A; first compound 0.253 µM,0.76
same,relative viability,LU99A; first compound 0.8 µM,0.875
same,relative viability,LU99A; first compound 2.53 µM,0.96
same,relative viability,LU99A; first compound 8 µM,0.564
same,relative viability,NCI-H1395; first compound 0.253 µM,0.436
same,relative viability,NCI-H1395; first compound 0.8 µM,0.403
same,relative viability,NCI-H1395; first compound 2.53 µM,0.508
same,relative viability,NCI-H1395; first compound 8 µM,0.419
same,relative viability,NCI-H1651; first compound 0.253 µM,0.301
same,relative viability,NCI-H1651; first compound 0.8 µM,0.351
same,relative viability,NCI-H1651; first compound 2.53 µM,0.493
same,relative viability,NCI-H1651; first compound 8 µM,0.337
same,relative viability,NCI-H1734; first compound 0.253 µM,0.39
same,relative viability,NCI-H1734; first compound 0.8 µM,0.413
same,relative viability,NCI-H1734; first compound 2.53 µM,0.425
same,relative viability,NCI-H1734; first compound 8 µM,0.34
same,relative viability,NCI-H1792; first compound 0.253 µM,0.369
same,relative viability,NCI-H1792; first compound 2.53 µM,0.574
same,relative viability,NCI-H1792; first compound 8 µM,0.189
same,relative viability,NCI-H1975; first compound 0.253 µM,0.402
same,relative viability,NCI-H1975; first compound 0.8 µM,0.35
same,relative viability,NCI-H1975; first compound 2.53 µM,0.474
same,relative viability,NCI-H1975; first compound 8 µM,0.336
same,relative viability,NCI-H2023; first compound 0.253 µM,0.405
same,relative viability,NCI-H2023; first compound 0.8 µM,0.522
same,relative viability,NCI-H2023; first compound 2.53 µM,0.431
same,relative viability,NCI-H2023; first compound 8 µM,0.407
same,relative viability,NCI-H2126; first compound 0.253 µM,0.552
same,relative viability,NCI-H2126; first compound 0.8 µM,0.517
same,relative viability,NCI-H2126; first compound 2.53 µM,0.531
same,relative viability,NCI-H2126; first compound 8 µM,0.458
same,relative viability,NCI-H2342; first compound 0.253 µM,0.637
same,relative viability,NCI-H2342; first compound 0.8 µM,0.551
same,relative viability,NCI-H2342; first compound 2.53 µM,0.628
same,relative viability,NCI-H2342; first compound 8 µM,0.505
same,relative viability,NCI-H23; first compound 0.253 µM,0.733
same,relative viability,NCI-H23; first compound 0.8 µM,0.695
same,relative viability,NCI-H23; first compound 2.53 µM,0.889
same,relative viability,NCI-H23; first compound 8 µM,0.729
same,relative viability,NCI-H2405; first compound 0.253 µM,0.382
same,relative viability,NCI-H2405; first compound 0.8 µM,0.416
same,relative viability,NCI-H2405; first compound 2.53 µM,0.416
same,relative viability,NCI-H2405; first compound 8 µM,0.351
same,relative viability,NCI-H3122; first compound 0.253 µM,0.379
same,relative viability,NCI-H3122; first compound 0.8 µM,0.387
same,relative viability,NCI-H3122; first compound 2.53 µM,0.395
same,relative viability,NCI-H3122; first compound 8 µM,0.457
same,relative viability,NCI-H460; first compound 0.253 µM,0.462
same,relative viability,NCI-H460; first compound 0.8 µM,0.522
same,relative viability,NCI-H460; first compound 2.53 µM,0.671
same,relative viability,NCI-H460; first compound 8 µM,0.563
same,relative viability,NCI-H661; first compound 0.253 µM,0.276
same,relative viability,NCI-H661; first compound 0.8 µM,0.314
same,relative viability,NCI-H661; first compound 2.53 µM,0.296
same,relative viability,NCI-H661; first compound 8 µM,0.249
same,relative viability,NCI-H838; first compound 0.253 µM,0.545
same,relative viability,NCI-H838; first compound 0.8 µM,0.541
same,relative viability,NCI-H838; first compound 2.53 µM,0.689
same,relative viability,NCI-H838; first compound 8 µM,0.468
same,relative viability,SK-MES-1; first compound 0.253 µM,0.556
same,relative viability,SK-MES-1; first compound 0.8 µM,0.678
same,relative viability,SK-MES-1; first compound 2.53 µM,0.678
same,relative viability,SK-MES-1; first compound 8 µM,0.773
same,relative viability,SW 1573; first compound 0.253 µM,0.432
same,relative viability,SW 1573; first compound 0.8 µM,0.43
same,relative viability,SW 1573; first compound 2.53 µM,0.347
same,relative viability,SW 1573; first compound 8 µM,0.345
